Measurements published in patent US20250026721A1, “COMPOUNDS AND METHODS FOR MODULATING RAS-PI3K” (Vividion Therapeutics, Inc., priority 2023, published 2025).

Key:
[1] = system: pAKT(S473) in H358 cell line; assay: In vitro Phospho-AKT(S473) HTRF analysis in H358 cells; format: cell-based; settings: for IC50 / Emax: Homo sapiens, NCI-H358, 0.5 h; for IC50: H358 cells, 30 minutes at 37° C.; for Emax: read-out: H358 pAKT Imax % control
Procedure: Example 5. In Vitro Phosgho-AKT(S473) Analysis
Functional activity of the compounds to inhibit pAKT were assessed in FaDu or H358 cell lines as indicated below.
• Complete Media • FBS, Corning catalog #35-010-CV • Anti-Anti, Gibco catalog #15240-062 • 96 well plate, Corning catalog #3610 • TrypLE, Gibco catalog #12604013 • Phospho-AKT(S473) HTRF kit, Cisbio catalog #64AKSPET
Cells were detached from the tissue culture flask with TrypLE. The cells were pelleted at 500×g for 5 min, TrypLe was removed and then resuspended in the necessary volume of media+1% FBS to give the appropriate cell density (17,500 cells/mL for FaDu; 20,000 cells/mL for H358). 100 μL of cell suspension/well was dispensed into the 96-well plate while keeping the outer wells of the plate free of cells and filled with PBS to prevent evaporation of interior wells. The plate was incubated at 37° C. and allowed to adhere overnight. The cells were treated with a dose response of compound and incubated at 37° C. for 30 minutes. The cells were then processed and pAKT(S473) levels were assessed following the specifications of the Cisbio HTRF kit.

[2] = target: T1, PIK3CA (Homo sapiens, UniProt P42336); assay: In vitro ELISA target engagement assay for PIK3CA in Jurkat cellular lysate (competition with PIK3CA Biotin Probe); format: binding; settings: 1 hour at rt, then 500 nM PIK3CA Biotin Probe, read-out: Elisa Target Engagement Assay (TE50)
T1 construct: endogenous in cells; host or cells: Jurkat cell lysate
Outline: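 Jurkat lysate from sonicated frozen cells was preincubated 1 h at rt with serially diluted compound up to 200 μM, then labelled 1 h at rt with PIK3CA biotin probe at 500 nM final. Probe-bound PIK3CA was captured on antibody-coated plates and detected with Neutravidin-HRP luminescence; TE50 derived from the dose response.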

[3] = system: pAKT(S473) in FaDu cell line; assay: In vitro Phospho-AKT(S473) HTRF analysis in FaDu cells; format: cell-based; settings: for IC50 / Emax: Homo sapiens, 0.5 h; for IC50: FaDu cells, 30 minutes at 37° C.; for Emax: FaDu, read-out: FaDu pAKT Imax % control
Outline: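 FaDu or H358 cells were plated overnight in medium with 1% FBS, then exposed to a compound dose response for 30 minutes at 37° C. Phospho-AKT(S473) levels were measured by HTRF.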

[4] = target: T2, PIK3CA_C242 (Homo sapiens, UniProt P42336); assay: Proteomic TE50 (IA-DTB / TMT mass spectrometry) in Jurkat cell lysate; format: binding; settings: 1 hour at rt, 7-point dose response
T2 construct: endogenous in cells; host or cells: Jurkat cell lysate
Outline: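 Jurkat lysate (500 μg) treated with compound (7-point, 1:5 dilutions) for 1 h at rt, then labelled with 200 μM IA-DTB for 1 h. After digestion and streptavidin enrichment, the C242 peptide was quantified by targeted MS3 TMT. TE50 was derived from reporter-ion S/N dose-response curves.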

T1 sequence (P42336 whole entry): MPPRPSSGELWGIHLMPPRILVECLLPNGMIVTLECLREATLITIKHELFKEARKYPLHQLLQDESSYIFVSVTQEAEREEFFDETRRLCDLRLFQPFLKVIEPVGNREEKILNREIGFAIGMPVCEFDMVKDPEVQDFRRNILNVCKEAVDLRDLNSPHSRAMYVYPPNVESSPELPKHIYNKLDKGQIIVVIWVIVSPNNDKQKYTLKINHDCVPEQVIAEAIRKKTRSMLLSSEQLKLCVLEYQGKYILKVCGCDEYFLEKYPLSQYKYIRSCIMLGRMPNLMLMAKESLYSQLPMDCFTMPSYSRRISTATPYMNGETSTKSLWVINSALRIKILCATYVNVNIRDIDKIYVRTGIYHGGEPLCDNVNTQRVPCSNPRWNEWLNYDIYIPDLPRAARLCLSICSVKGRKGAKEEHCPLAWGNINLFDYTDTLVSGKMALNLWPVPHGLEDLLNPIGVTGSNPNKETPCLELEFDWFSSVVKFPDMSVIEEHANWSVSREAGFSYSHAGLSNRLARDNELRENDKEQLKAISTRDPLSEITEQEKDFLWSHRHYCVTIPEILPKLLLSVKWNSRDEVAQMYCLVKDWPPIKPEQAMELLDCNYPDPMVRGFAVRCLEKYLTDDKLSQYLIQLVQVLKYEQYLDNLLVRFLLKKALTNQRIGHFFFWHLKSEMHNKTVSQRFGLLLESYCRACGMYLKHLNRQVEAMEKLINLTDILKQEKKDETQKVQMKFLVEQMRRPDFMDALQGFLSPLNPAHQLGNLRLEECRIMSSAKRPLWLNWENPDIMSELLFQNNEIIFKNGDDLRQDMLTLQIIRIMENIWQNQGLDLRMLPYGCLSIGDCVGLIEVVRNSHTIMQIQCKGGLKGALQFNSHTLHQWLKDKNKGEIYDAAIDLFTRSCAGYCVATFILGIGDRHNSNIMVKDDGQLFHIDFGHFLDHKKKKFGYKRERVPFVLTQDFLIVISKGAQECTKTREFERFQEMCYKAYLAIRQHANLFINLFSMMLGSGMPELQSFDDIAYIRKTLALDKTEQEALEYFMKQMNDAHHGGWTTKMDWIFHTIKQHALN
T1 sequence (P27986 whole entry partner): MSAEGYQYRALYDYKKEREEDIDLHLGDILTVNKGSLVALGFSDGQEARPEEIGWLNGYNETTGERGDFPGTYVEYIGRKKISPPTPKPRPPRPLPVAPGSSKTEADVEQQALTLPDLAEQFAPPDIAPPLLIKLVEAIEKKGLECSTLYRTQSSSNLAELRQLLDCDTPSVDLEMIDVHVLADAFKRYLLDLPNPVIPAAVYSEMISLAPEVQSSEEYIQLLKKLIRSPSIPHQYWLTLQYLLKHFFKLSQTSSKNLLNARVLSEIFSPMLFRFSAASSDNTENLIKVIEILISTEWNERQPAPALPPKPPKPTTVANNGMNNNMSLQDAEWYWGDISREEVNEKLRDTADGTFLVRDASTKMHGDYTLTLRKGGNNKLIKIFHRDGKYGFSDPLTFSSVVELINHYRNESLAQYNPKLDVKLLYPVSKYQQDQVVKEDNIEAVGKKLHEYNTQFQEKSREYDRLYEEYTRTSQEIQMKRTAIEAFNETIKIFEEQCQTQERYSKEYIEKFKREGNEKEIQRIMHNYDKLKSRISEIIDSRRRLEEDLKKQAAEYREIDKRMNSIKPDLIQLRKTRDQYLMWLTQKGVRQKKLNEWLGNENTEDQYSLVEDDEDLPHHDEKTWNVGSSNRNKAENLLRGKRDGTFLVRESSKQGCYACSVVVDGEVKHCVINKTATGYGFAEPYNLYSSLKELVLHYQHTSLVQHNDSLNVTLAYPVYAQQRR
T2 sequence (P42336 whole entry): as the sequence (P42336 whole entry) above
T2 sequence (P27986 whole entry partner): as the sequence (P27986 whole entry partner) above

IC50 [1]	IC50 [2]	IC50 [3]	IC50 [4]	Structure (SMILES)	Emax [1]	Emax [3]	absolute inhibition of pAKT ([1]; H358 cell line, internal standard, variation between runs)	absolute inhibition of pAKT ([3]; FaDu cell line, internal standard, variation between runs)
396 nM	650 nM	428 nM	–	C[C@H](/C=C\S(C)(=O)=O)NC(=O)[C@@]1(F)CCCN(C(=O)[C@H]2CN(Cc3ccccc3)C[C@H]2c2ccccc2Cl)CC1 (single isomer, unassigned) [Compound 305, (R)-1-((3*R,4*R)-1-benzyl-4-(2-chlorophenyl)pyrrolidine-3-carbonyl)-4-fluoro-N-((R,Z)-4-(methylsulfonyl)but-3-en-2-yl)azepane-4-carboxamide]	90.7%	94.3%	–	–
329 nM	530 nM	450 nM	–	C[C@H](/C=C\S(C)(=O)=O)NC(=O)[C@@]1(F)CCCN(C(=O)[C@H]2CN(CCC(F)(F)F)C[C@H]2c2ccccc2Cl)CC1 [Compound 196, (R)-1-((3R,4R)-4-(2-chlorophenyl)-1-(3,3,3-trifluoropropyl)pyrrolidine-3-carbonyl)-4-fluoro-N-((R,Z)-4-(methylsulfonyl)but-3-en-2-yl)azepane-4-carboxamide]	96.3%	86.4%	–	–
326 nM	520 nM	–	–	Cc1ccccc1[C@@H]1CN(CC(F)(F)F)C[C@@H]1C(=O)N1CCC[C@](F)(C(=O)N[C@H](C)/C=C\S(C)(=O)=O)CC1 (single isomer, unassigned) [Compound 224, (R)-4-fluoro-N-((R,Z)-4-(methylsulfonyl)but-3-en-2-yl)-1-((3*R,4*R)-4-(o-tolyl)-1-(2,2,2-trifluoroethyl)pyrrolidine-3-carbonyl) azepane-4-carboxamide]	81.2%	–	–	–
953 nM	1450 nM	–	980 nM	COc1ccc(Cl)c(-c2cc(Cl)ncc2S(=O)(=O)N2CCC(F)(C(=O)N[C@H](C)/C=C\S(C)(=O)=O)CC2)c1 [Compound 217, (R,Z)-1-((6-chloro-4-(2-chloro-5-methoxyphenyl)pyridin-3-yl)sulfonyl)-4-fluoro-N-(4-(methylsulfonyl)but-3-en-2-yl)piperidine-4-carboxamide]	74.6%	–	–	–
67 nM	430 nM	–	–	C[C@H](/C=C\S(C)(=O)=O)NC(=O)C1(F)CCN(C(=O)[C@H]2CCC(C)(C)C[C@@H]2c2ccccc2Cl)CC1 (racemic) [Compound 255, 1-((1*S,2*S)-2-(2-chlorophenyl)-4,4-dimethylcyclohexane-1-carbonyl)-4-fluoro-N-((R,Z)-4-(methylsulfonyl)but-3-en-2-yl)piperidine-4-carboxamide]	86.7%	–	–	–
146 nM	210 nM	–	–	C[C@H](/C=C\S(C)(=O)=O)NC(=O)[C@@]1(F)CCCN(C(=O)[C@@H]2CN(CC(C)(F)F)C[C@@H]2c2cccc(F)c2Cl)CC1 (single isomer, unassigned) [Compound 222, (R)-1-((3*S,4*S)-4-(2-chloro-3-fluorophenyl)-1-(2,2-difluoropropyl)pyrrolidine-3-carbonyl)-4-fluoro-N-((R,Z)-4-(methylsulfonyl)but-3-en-2-yl)azepane-4-carboxamide]	91%	–	–	–
346 nM	510 nM	–	–	C[C@H](/C=C\S(C)(=O)=O)NC(=O)[C@@]1(F)CCCN(C(=O)[C@H]2CN(CC(F)(F)F)C[C@H]2c2ccccc2F)CC1 (single isomer, unassigned) [Compound 223, (R)-4-fluoro-1-((3*R,4*R)-4-(2-fluorophenyl)-1-(2,2,2-trifluoroethyl)pyrrolidine-3-carbonyl)-N-((R,Z)-4-(methylsulfonyl)but-3-en-2-yl) azepane-4-carboxamide]	87.5%	–	–	–
1500 nM	910 nM	–	–	C[C@@H](/C=C\S(C)(=O)=O)NC(=O)[C@@]1(F)CCCN(C(=O)[C@H]2CN(CC(F)(F)F)C[C@H]2c2c(F)cccc2Cl)CC1 [Compound 297, (R)-1-((3R,4R)-4-(2-chloro-6-fluorophenyl)-1-(2,2,2-trifluoroethyl)pyrrolidine-3-carbonyl)-4-fluoro-N-((S,Z)-4-(methylsulfonyl)but-3-en-2-yl)azepane-4-carboxamide]	87.6%	–	–	–
276 nM	390 nM	–	–	C[C@H](/C=C\S(C)(=O)=O)NC(=O)[C@@]1(F)CCCN(C(=O)N2CCN(CC(F)(F)F)C[C@H]2c2ccccc2Cl)CC1 (single isomer, unassigned) [Compound 309, (R)-1-((*R)-2-(2-chlorophenyl)-4-(2,2,2-trifluoroethyl)piperazine-1-carbonyl)-4-fluoro-N—((R,Z)-4-(methylsulfonyl)but-3-en-2-yl)azepane-4-carboxamide]	91.8%	–	–	–

Continued, molecule first:

Structure (SMILES)	IC50 [1]	IC50 [2]	IC50 [3]	IC50 [4]	Emax [1]	Emax [3]	absolute inhibition of pAKT ([1]; H358 cell line, internal standard, variation between runs)	absolute inhibition of pAKT ([3]; FaDu cell line, internal standard, variation between runs)
Cc1ccc([C@@H]2CN(CC(F)(F)F)C[C@@H]2C(=O)N2CCC[C@](F)(C(=O)N[C@H](C)/C=C\S(C)(=O)=O)CC2)c(Cl)c1 (single isomer, unassigned) [Compound 169, (R)-1-((3*R,4*R)-4-(2-chloro-4-methylphenyl)-1-(2,2,2-trifluoroethyl)pyrrolidine-3-carbonyl)-4-fluoro-N—((R,Z)-4-(methylsulfonyl)but-3-en-2-yl)azepane-4-carboxamide]	202 nM	210 nM	154 nM	–	106%	108%	–	–
C[C@H](/C=C\S(C)(=O)=O)NC(=O)[C@@]1(F)CCCN(C(=O)[C@H]2CN(CC(F)(F)Cl)C[C@H]2c2ccccc2Cl)CC1 [Compound 195, (R)-1-((3R,4R)-1-(2-chloro-2,2-difluoroethyl)-4-(2-chlorophenyl)pyrrolidine-3-carbonyl)-4-fluoro-N-((R,Z)-4-(methylsulfonyl)but-3-en-2-yl)azepane-4-carboxamide]	123 nM	190 nM	113 nM	–	85%	96.9%	–	–
C[C@H](/C=C\S(C)(=O)=O)NC(=O)C1(F)CCN(S(=O)(=O)c2ccc(Br)cc2-c2ccccc2Cl)CC1 [Compound 47, 1-[4-bromo-2-(2-chlorophenyl)phenyl]sulfonyl-4-fluoro-N—[(Z,1R)-1-methyl-3-methylsulfonyl-allyl]piperidine-4-carboxamide]	–	–	96.5 nM	–	–	100%	40-89%	43-98%
C[C@H]1C[C@](F)(C(=O)N[C@@H]2C=CS(=O)(=O)C2)CCN1C(=O)[C@H]1CN(CC(F)(F)F)C[C@H]1c1cccc(F)c1Cl (single isomer, unassigned) [Compound 175, (2*S,4*S)-1-((3*R,4*R)-4-(2-chloro-3-fluorophenyl)-1-(2,2,2-trifluoroethyl)pyrrolidine-3-carbonyl)-N-((R)-1,1-dioxido-2,3-dihydrothiophen-3-yl)-4-fluoro-2-methylpiperidine-4-carboxamide]	151 nM	620 nM	–	–	75.6%	–	–	–
C[C@H](/C=C\S(C)(=O)=O)NC(=O)[C@@]1(F)CCCN(C(=O)[C@H]2CN(CC(C)(F)F)C[C@H]2c2c(F)cccc2Cl)CC1 (single isomer, unassigned) [Compound 183]	56.6 nM	78 nM	–	–	93.2%	–	–	–
C[C@H](/C=C\S(C)(=O)=O)NC(=O)[C@@]1(F)CCCN(C(=O)[C@H]2CN(CC3(F)CC3)C[C@H]2c2c(F)cccc2Cl)CC1 (single isomer, unassigned) [Compound 184, (R)-1-((3*R,4*R)-4-(2-chloro-6-fluorophenyl)-1-((1-fluorocyclopropyl)methyl)pyrrolidine-3-carbonyl)-4-fluoro-N-((R,Z)-4-(methylsulfonyl)but-3-en-2-yl)azepane-4-carboxamide]	64.6 nM	85 nM	–	–	102%	–	–	–
C[C@H](/C=C\S(C)(=O)=O)NC(=O)[C@@]1(F)CCCN(C(=O)[C@H]2CN(CC(F)(F)F)C[C@H]2c2cccc(F)c2F)CC1 (single isomer, unassigned) [Compound 173, (R)-1-((3*R,4*R)-4-(2,3-difluorophenyl)-1-(2,2,2-trifluoroethyl)pyrrolidine-3-carbonyl)-4-fluoro-N-((R,Z)-4-(methylsulfonyl)but-3-en-2-yl)azepane-4-carboxamide]	464 nM	540 nM	–	–	85.5%	–	–	–
